Biological target: Tyrosine-protein kinase BTK (Homo sapiens, UniProt Q06187)
Test: In Vitro BTK Kinase Assay
Method: The purpose of the BTK in vitro assay is to determine compound potency against BTK through the measurement of IC50. […] For a typical assay, a 24 μL aliquot of a ATP/peptide master mix (final concentration; ATP 10 μM, polyGAT 100 nM) in kinase buffer (10 mM Tris-HCl pH 7.5, 10 mM MgCl2, 200 μM Na3PO4, 5 mM DTT, 0.01% Triton X-100, and 0.2 mg/ml casein) is added to each well. […] The assay is incubated for 30 minutes before being stopped with […] of a 50 mM EDTA solution. […] The plate is covered and incubated for 45 minutes at room temperature.

Tyrosine-protein kinase BTK, sequence (Q06187 whole entry): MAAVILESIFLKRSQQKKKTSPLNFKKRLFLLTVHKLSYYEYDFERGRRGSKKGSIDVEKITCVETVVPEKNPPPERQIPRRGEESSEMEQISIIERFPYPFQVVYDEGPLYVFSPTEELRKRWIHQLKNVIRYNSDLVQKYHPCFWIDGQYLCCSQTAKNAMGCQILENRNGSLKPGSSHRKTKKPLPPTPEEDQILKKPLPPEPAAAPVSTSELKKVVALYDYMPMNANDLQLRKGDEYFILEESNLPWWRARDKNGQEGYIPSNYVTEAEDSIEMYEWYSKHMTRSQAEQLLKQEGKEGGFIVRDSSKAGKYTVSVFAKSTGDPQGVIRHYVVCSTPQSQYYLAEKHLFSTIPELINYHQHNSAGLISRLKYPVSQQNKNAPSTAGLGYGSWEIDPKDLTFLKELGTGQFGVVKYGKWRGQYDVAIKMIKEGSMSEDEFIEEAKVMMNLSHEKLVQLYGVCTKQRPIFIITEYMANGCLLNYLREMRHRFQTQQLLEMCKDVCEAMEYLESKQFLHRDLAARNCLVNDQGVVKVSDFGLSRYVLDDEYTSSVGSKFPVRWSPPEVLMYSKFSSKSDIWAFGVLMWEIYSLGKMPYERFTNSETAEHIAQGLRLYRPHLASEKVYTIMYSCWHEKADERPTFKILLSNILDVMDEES

With `CC(C)(C)c1nc(C(=O)NCc2cc(F)c(-c3ccnc(NC(=O)C4CC4)c3)cc2C(F)(F)F)no1` [US12240838, Compound 62] the IC50 was under 1 nM.
